In ChEMBL document CHEMBL4507293 (2021):

Experiments:
[1] = molecular target: Activin receptor type-1B (Homo sapiens) (UniProt P36896); conditions: Compound concentration 100.0 nM
[2] = molecular target: Dual 3',5'-cyclic-AMP and -GMP phosphodiesterase 11A (Homo sapiens, UniProt Q9HCR9); experiment: Biochemical assay (PDE11A)
[3] = molecular target: 5-hydroxytryptamine receptor 6 (Homo sapiens) (UniProt P50406); conditions: Compound concentration 10.0 uM
[4] = molecular target: Dual specificity protein kinase CLK4 (Homo sapiens) (UniProt Q9HAZ1); conditions: Compound concentration 100.0 nM
[5] = molecular target: Serine/threonine-protein kinase Nek11 (Homo sapiens) (UniProt Q8NG66); conditions: Compound concentration 100.0 nM
[6] = molecular target: SNF-related serine/threonine-protein kinase (Homo sapiens) (UniProt Q9NRH2); conditions: Compound concentration 100.0 nM
[7] = molecular target: GABA-A receptor; anion channel (Rattus norvegicus) (UniProt O09028+P15431+P18506+P18508+P19969+P20236+P23574+P23576+P28471+P28473+P30191+P62813+P63079+P63138+Q91ZM7+Q9ES14); conditions: Compound concentration 10.0 uM
[8] = test system: Phosphatidylinositol 4,5-bisphosphate 3-kinase catalytic subunit alpha isoform (Homo sapiens), P42336 [M1043I]; conditions: Compound concentration 100.0 nM
[9] = test system: Tyrosine-protein kinase ABL1 (Homo sapiens), P00519 [T315I]; conditions: Compound concentration 100.0 nM
[10] = test system: Mast/stem cell growth factor receptor Kit (Homo sapiens), P10721 [D816V]; conditions: Compound concentration 100.0 nM
[11] = molecular target: Phosphatidylinositol 4,5-bisphosphate 3-kinase catalytic subunit delta isoform (Homo sapiens) (UniProt O00329); conditions: Compound concentration 100.0 nM
Chain of Phosphatidylinositol 4,5-bisphosphate 3-kinase catalytic subunit delta isoform (Homo sapiens) (O00329 whole entry, canonical isoform): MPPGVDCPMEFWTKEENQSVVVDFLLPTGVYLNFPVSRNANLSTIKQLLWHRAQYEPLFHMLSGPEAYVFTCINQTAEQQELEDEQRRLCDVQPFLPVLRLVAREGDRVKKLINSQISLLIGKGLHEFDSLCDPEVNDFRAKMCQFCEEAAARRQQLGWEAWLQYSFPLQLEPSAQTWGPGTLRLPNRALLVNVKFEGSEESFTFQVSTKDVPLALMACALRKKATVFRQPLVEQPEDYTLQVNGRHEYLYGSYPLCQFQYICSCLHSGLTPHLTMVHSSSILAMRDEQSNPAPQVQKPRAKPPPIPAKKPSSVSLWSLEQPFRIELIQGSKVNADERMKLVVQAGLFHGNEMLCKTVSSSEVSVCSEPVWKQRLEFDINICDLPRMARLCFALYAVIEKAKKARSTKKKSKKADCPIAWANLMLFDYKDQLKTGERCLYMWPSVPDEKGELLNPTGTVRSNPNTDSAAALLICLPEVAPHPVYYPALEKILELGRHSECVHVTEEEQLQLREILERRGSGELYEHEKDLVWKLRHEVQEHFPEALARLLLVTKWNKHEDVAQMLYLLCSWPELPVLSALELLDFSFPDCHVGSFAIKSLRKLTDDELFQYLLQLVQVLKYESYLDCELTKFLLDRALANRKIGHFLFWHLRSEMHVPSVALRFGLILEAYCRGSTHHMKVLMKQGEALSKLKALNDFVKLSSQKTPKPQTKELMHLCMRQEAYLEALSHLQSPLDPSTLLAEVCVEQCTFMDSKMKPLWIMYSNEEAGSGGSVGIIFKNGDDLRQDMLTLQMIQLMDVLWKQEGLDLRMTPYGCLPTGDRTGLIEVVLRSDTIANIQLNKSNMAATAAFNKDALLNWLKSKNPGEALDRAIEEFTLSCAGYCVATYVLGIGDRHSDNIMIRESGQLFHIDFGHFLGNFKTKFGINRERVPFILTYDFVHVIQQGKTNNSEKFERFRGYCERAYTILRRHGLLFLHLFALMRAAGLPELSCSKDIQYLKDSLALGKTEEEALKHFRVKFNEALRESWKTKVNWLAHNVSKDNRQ

[12] = molecular target: Receptor tyrosine-protein kinase erbB-4 (Homo sapiens) (UniProt Q15303); conditions: Compound concentration 100.0 nM
[13] = molecular target: Serine/threonine-protein kinase Nek9 (Homo sapiens) (UniProt Q8TD19); conditions: Compound concentration 100.0 nM
Chain of Serine/threonine-protein kinase Nek9 (Homo sapiens) (Q8TD19 whole entry): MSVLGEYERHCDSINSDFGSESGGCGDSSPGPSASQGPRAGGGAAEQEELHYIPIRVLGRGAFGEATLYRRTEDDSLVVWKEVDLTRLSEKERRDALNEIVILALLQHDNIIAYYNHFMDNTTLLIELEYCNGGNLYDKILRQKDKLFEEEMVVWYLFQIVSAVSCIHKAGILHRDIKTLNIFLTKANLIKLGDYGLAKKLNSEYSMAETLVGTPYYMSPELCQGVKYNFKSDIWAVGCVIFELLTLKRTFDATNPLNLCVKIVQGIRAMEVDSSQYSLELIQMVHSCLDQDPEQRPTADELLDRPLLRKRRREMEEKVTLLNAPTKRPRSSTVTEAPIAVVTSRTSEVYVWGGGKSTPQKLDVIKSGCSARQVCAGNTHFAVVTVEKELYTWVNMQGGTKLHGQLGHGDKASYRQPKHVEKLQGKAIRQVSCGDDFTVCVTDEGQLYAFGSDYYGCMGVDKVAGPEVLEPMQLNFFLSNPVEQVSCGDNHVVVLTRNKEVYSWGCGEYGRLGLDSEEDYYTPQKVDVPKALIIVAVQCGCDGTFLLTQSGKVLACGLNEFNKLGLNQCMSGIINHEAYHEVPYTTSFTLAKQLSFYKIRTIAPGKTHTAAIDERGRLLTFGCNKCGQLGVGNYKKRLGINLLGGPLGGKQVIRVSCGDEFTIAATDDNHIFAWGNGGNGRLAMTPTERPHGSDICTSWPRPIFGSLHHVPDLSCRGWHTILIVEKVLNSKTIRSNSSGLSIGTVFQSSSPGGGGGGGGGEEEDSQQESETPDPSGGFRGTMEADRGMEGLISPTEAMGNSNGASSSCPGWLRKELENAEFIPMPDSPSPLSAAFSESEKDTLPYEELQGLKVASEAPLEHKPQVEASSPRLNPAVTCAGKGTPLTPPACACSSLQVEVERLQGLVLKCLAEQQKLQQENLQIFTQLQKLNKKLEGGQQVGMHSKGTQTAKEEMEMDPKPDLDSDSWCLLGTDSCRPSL

[14] = molecular target: Insulin receptor-related protein (Homo sapiens) (UniProt P14616); conditions: Compound concentration 100.0 nM
[15] = molecular target: Serine/threonine-protein kinase MARK2 (Homo sapiens) (UniProt Q7KZI7); conditions: Compound concentration 100.0 nM
[16] = molecular target: Kappa-type opioid receptor (Homo sapiens) (UniProt P41145); conditions: Compound concentration 10.0 uM
[17] = molecular target: Serine/threonine-protein kinase 33 (Homo sapiens) (UniProt Q9BYT3); conditions: Compound concentration 100.0 nM
[18] = molecular target: Serine/threonine-protein kinase MRCK gamma (Homo sapiens) (UniProt Q6DT37); conditions: Compound concentration 100.0 nM
[19] = molecular target: Serine/threonine-protein kinase 32B (Homo sapiens) (UniProt Q9NY57); conditions: Compound concentration 100.0 nM
[20] = molecular target: Wee1-like protein kinase (Homo sapiens) (UniProt P30291); conditions: Compound concentration 100.0 nM
[21] = molecular target: Serine/threonine-protein kinase SIK1 (Homo sapiens) (UniProt P57059); conditions: Compound concentration 100.0 nM
[22] = test system: Receptor-type tyrosine-protein kinase FLT3 (Homo sapiens), P36888 [D835Y]; conditions: Compound concentration 100.0 nM
[23] = molecular target: Mitogen-activated protein kinase 14 (Homo sapiens) (UniProt Q16539); conditions: Compound concentration 100.0 nM
[24] = molecular target: Serine/threonine-protein kinase TBK1 (Homo sapiens) (UniProt Q9UHD2); conditions: Compound concentration 100.0 nM
[25] = molecular target: Homeodomain-interacting protein kinase 1 (Homo sapiens) (UniProt Q86Z02); conditions: Compound concentration 100.0 nM
[26] = molecular target: Dual specificity mitogen-activated protein kinase kinase 5 (Homo sapiens) (UniProt Q13163); conditions: Compound concentration 100.0 nM
[27] = molecular target: Cyclin-dependent kinase 14 (Homo sapiens) (UniProt O94921); conditions: Compound concentration 100.0 nM
[28] = molecular target: RAC-gamma serine/threonine-protein kinase (Homo sapiens) (UniProt Q9Y243); conditions: Compound concentration 100.0 nM
Chain of RAC-gamma serine/threonine-protein kinase (Homo sapiens) (Q9Y243 whole entry): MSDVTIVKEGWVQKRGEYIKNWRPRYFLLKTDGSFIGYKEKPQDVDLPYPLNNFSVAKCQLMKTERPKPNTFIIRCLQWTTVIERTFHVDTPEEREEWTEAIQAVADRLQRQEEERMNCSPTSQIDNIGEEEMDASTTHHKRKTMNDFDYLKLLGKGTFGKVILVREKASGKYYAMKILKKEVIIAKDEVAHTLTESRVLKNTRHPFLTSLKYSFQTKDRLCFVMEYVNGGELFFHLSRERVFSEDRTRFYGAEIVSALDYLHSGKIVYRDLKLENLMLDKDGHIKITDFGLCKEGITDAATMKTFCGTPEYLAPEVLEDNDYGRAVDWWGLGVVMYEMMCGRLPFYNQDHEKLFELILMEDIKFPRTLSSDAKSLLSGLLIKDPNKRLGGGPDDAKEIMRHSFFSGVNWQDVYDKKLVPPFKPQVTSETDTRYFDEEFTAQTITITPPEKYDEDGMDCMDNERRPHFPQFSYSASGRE

[29] = molecular target: Mitogen-activated protein kinase kinase kinase 10 (Homo sapiens) (UniProt Q02779); conditions: Compound concentration 100.0 nM
[30] = molecular target: Mitogen-activated protein kinase 1 (Homo sapiens) (UniProt P28482); conditions: Compound concentration 100.0 nM
[31] = molecular target: Dual serine/threonine and tyrosine protein kinase (Homo sapiens) (UniProt Q6XUX3); conditions: Compound concentration 100.0 nM
[32] = molecular target: Maternal embryonic leucine zipper kinase (Homo sapiens) (UniProt Q14680); conditions: Compound concentration 100.0 nM
[33] = molecular target: BMP-2-inducible protein kinase (Homo sapiens) (UniProt Q9NSY1); conditions: Compound concentration 100.0 nM
[34] = molecular target: Casein kinase I isoform alpha (Homo sapiens) (UniProt P48729); conditions: Compound concentration 100.0 nM
[35] = molecular target: Leukocyte tyrosine kinase receptor (Homo sapiens) (UniProt P29376); conditions: Compound concentration 100.0 nM
Chain of Leukocyte tyrosine kinase receptor (Homo sapiens) (P29376 whole entry): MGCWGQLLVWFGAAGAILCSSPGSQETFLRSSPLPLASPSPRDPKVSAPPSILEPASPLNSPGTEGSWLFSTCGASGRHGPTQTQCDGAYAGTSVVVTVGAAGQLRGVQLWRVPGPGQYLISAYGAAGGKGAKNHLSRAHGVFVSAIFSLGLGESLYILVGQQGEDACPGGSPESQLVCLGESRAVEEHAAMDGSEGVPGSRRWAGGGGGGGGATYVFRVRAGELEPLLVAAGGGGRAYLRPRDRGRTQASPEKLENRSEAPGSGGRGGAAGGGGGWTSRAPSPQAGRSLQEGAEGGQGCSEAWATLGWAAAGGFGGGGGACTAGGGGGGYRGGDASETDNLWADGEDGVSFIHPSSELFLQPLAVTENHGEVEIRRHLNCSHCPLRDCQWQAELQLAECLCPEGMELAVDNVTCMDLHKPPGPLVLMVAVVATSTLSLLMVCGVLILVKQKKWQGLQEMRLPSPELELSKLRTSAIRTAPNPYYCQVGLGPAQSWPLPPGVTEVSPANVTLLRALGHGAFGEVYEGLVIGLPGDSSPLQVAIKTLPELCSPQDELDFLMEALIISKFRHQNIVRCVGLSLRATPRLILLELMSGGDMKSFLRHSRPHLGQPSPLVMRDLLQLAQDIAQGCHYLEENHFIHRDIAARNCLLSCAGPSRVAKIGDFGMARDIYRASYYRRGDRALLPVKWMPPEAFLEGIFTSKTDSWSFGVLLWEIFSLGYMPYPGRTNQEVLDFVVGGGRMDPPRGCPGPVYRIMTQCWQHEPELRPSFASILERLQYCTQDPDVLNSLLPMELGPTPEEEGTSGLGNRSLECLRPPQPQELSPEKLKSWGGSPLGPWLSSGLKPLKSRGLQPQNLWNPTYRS

[36] = molecular target: Mitogen-activated protein kinase kinase kinase 4 (Homo sapiens) (UniProt Q9Y6R4); conditions: Compound concentration 100.0 nM
[37] = molecular target: Calcium/calmodulin-dependent protein kinase type 1G (Homo sapiens) (UniProt Q96NX5); conditions: Compound concentration 100.0 nM
Chain of Calcium/calmodulin-dependent protein kinase type 1G (Homo sapiens) (Q96NX5 whole entry): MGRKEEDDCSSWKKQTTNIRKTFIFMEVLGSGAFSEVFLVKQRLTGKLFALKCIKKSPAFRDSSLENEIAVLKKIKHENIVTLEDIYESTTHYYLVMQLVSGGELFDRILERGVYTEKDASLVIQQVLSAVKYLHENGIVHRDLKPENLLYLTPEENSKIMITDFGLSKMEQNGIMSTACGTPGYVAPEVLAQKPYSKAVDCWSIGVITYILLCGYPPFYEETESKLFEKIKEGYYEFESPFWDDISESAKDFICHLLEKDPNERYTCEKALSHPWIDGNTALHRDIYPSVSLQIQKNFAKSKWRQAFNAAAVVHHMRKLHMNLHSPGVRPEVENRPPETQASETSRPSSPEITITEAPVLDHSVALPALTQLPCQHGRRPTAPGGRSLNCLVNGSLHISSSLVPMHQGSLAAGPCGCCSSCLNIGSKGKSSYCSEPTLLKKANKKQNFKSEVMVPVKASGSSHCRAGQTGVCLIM

[38] = molecular target: Casein kinase II subunit alpha (Homo sapiens) (UniProt P68400); conditions: Compound concentration 100.0 nM
[39] = molecular target: Interferon-induced, double-stranded RNA-activated protein kinase (Homo sapiens) (UniProt P19525); conditions: Compound concentration 100.0 nM
[40] = molecular target: Serine/threonine-protein kinase PLK2 (Homo sapiens) (UniProt Q9NYY3); conditions: Compound concentration 100.0 nM
[41] = molecular target: cGMP-dependent protein kinase 1 (Homo sapiens) (UniProt Q13976); conditions: Compound concentration 100.0 nM
Chain of cGMP-dependent protein kinase 1 (Homo sapiens) (Q13976 whole entry): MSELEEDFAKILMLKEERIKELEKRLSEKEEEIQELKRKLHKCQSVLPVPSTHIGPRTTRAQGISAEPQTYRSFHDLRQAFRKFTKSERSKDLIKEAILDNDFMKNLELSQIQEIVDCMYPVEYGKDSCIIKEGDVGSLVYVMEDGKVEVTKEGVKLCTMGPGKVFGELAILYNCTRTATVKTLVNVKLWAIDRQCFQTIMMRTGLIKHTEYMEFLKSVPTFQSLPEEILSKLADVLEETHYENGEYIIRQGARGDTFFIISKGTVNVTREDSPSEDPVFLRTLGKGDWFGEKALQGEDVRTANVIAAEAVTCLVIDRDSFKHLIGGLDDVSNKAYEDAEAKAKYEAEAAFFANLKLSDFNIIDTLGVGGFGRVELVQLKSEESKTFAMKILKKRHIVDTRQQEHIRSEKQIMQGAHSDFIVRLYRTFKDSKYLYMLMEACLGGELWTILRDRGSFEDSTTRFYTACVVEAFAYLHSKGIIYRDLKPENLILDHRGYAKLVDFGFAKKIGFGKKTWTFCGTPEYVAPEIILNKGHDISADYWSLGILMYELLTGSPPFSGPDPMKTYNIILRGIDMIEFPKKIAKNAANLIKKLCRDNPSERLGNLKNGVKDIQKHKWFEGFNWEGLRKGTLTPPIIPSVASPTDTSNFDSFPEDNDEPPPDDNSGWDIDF

[42] = molecular target: Inhibitor of nuclear factor kappa-B kinase subunit epsilon (Homo sapiens) (UniProt Q14164); conditions: Compound concentration 100.0 nM
[43] = molecular target: Rho-associated protein kinase 2 (Homo sapiens) (UniProt O75116); conditions: Compound concentration 100.0 nM
[44] = molecular target: Activin receptor type-1 (Homo sapiens) (UniProt Q04771); conditions: Compound concentration 100.0 nM

Chain of Activin receptor type-1B (Homo sapiens) (P36896 whole entry): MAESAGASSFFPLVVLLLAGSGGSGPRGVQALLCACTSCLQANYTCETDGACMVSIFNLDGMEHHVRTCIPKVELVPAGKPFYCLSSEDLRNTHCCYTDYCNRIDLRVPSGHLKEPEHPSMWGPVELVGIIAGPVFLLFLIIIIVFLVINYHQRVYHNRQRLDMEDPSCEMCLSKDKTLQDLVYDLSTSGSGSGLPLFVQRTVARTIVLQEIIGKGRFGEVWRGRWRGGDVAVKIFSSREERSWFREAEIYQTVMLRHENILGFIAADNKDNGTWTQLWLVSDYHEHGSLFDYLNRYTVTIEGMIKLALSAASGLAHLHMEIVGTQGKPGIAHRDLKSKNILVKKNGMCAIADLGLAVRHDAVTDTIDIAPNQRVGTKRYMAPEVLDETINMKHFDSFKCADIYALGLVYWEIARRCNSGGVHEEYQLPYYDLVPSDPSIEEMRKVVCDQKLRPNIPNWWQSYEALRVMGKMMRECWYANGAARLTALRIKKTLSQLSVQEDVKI

With `COCCOc1nc(-c2ccc(Cl)nc2)nc2c1CN(C(=O)c1ncn3ccccc13)CC2` [THPP-1] the residual activity [1] was 86%, the Ki [2] was 0.298 µM (not active) and the inhibition [3] was -4.55%. For the same compound, the residual activity [4] was 100%, the residual activity [5] was 100% and the residual activity [6] was 79%. It also gave an inhibition [7] of 24.9%, a residual activity [8] of 88% and a residual activity [9] of 100%. The residual activity [10] was 100%, the residual activity [11] was 94% and the residual activity [12] was 80%. The residual activity [13] was 100%, the residual activity [14] was 100% and the residual activity [15] was 100%. The inhibition [16] was -1.56%, the residual activity [17] was 53% and the residual activity [18] was 100%. The residual activity [19] was 100%, the residual activity [20] was 100% and the residual activity [21] was 100%. For the same compound, the residual activity [22] was 100%, the residual activity [23] was 100% and the residual activity [24] was 68%. The residual activity [25] was 90%, the residual activity [26] was 100% and the residual activity [27] was 100%. It also gave a residual activity [28] of 47%, a residual activity [29] of 100% and a residual activity [30] of 95%. For the same compound, the residual activity [31] was 100%, the residual activity [32] was 65% and the residual activity [33] was 90%. It also gave a residual activity [34] of 98%, a residual activity [35] of 100% and a residual activity [36] of 100%. The residual activity [37] was 100%, the residual activity [38] was 99% and the residual activity [39] was 100%. For the same compound, the residual activity [40] was 100%, the residual activity [41] was 87% and the residual activity [42] was 100%. For the same compound, the residual activity [43] was 76% and the residual activity [44] was 100%.
`CC(C)CC(=O)N1CCc2nc(-c3ccc(Br)cc3)nc(N(C)Cc3ccccc3)c2C1` [THPP-1-NC] was tested, and the residual activity [1] was 89%, the Ki [2] was 8.8 µM (not active) and the inhibition [3] was 0.81%. For the same compound, the residual activity [4] was 92%, the residual activity [5] was 98% and the residual activity [6] was 84%. It also gave an inhibition [7] of -3.36%, a residual activity [8] of 53% and a residual activity [9] of 100%. The residual activity [10] was 100%, the residual activity [11] was 82% and the residual activity [12] was 94%. The residual activity [13] was 100%, the residual activity [14] was 100% and the residual activity [15] was 100%. The inhibition [16] was 38%, the residual activity [17] was 74% and the residual activity [18] was 100%. It also gave a residual activity [19] of 87%, a residual activity [20] of 100% and a residual activity [21] of 91%. For the same compound, the residual activity [22] was 100%, the residual activity [23] was 100% and the residual activity [24] was 75%. For the same compound, the residual activity [25] was 64%, the residual activity [26] was 98% and the residual activity [27] was 100%. It also gave a residual activity [28] of 64%, a residual activity [29] of 96% and a residual activity [30] of 93%. The residual activity [31] was 100%, the residual activity [32] was 67% and the residual activity [33] was 99%. The residual activity [34] was 73%, the residual activity [35] was 91% and the residual activity [36] was 100%. For the same compound, the residual activity [37] was 100%, the residual activity [38] was 100% and the residual activity [39] was 100%. For the same compound, the residual activity [40] was 100%, the residual activity [41] was 74% and the residual activity [42] was 100%. The residual activity [43] was 74% and the residual activity [44] was 100%.
